Reference: ChEMBL document CHEMBL3885861, “Open TG-GATES”

Species on record: Rattus norvegicus
Assay: Open TG-GATES - Regimen: Daily Repeat
Format: toxicity, organism-based, Sprague-Dawley
Design: regimen Daily Repeat, gender Male, age 6 weeks
Settings: in vivo, po, 0 mg/kg, route gavage, dose level Control; for APTT / Bas / Eos / Fbg / Hb / Ht / Lym / MCH / MCHC / MCV / Mono / Neu / PT / Plat / RBC / Ret / WBC: tissue Blood; for KIDNEY_L / KIDNEY_R / KIDNEY_TOTAL: tissue Kidney; for LIVER: tissue Liver; for A/G / ALP / ALT / AST / BUN / CRE / Ca / Cl / DBIL / GLC / IP / K / LDH / Na / PL / RALB / TBIL / TC / TG / TP / gamma-GTP: tissue Plasma

## Brc1ccccc1 [BROMOBENZENE]
72 h, time 3 day
  TERMINAL_BW: 210.3 g
  APTT: 15.5 s
  Bas: 0%
  Eos: 1%
  Fbg: 264.4 mg/dL
  Hb: 13.1 g/dL
  Ht: 38.3%
  Lym: 79.8%
  MCH: 21.4 pg
  MCHC: 34.3%
  MCV: 62.4 fL
  Mono: 3.2%
  Neu: 15.6%
  PT: 12 s
  Plat: 116.4 x10_4/uL
  RBC: 613.6 x10_4/ul
  Ret: 7.8%
  WBC: 89.2 x10_2/uL
  KIDNEY_L: 0.9 g
  KIDNEY_R: 0.8 g
  KIDNEY_TOTAL: 1.7 g
  LIVER: 10 g
  A/G: 0.9
  ALP: 1625.4 IU/L
  ALT: 52.2 IU/L
  AST: 77.8 IU/L
  BUN: 14.8 mg/dL
  CRE: 0.2 mg/dL
  Ca: 10.2 mg/dL
  Cl: 104.8 meq/L
  DBIL: 0.012 mg/dL
  GLC: 187 mg/dL
  IP: 7.6 mg/dL
  K: 4 meq/L
  LDH: 63.6 IU/L
  Na: 141.8 meq/L
  PL: 142.6 mg/dL
  RALB: 2.6 g/dL
  TBIL: 0.04 mg/dL
  TC: 79 mg/dL
  TG: 101 mg/dL
  TP: 5.7 g/dL
  gamma-GTP: 1.2 IU/L
[…], time 7 day
  TERMINAL_BW: 242.1 g
  APTT: 15.7 s
  Bas: 0.2%
  Eos: 1%
  Fbg: 283.4 mg/dL
  Hb: 13.4 g/dL
  Ht: 39%
  Lym: 78.4%
  MCH: 21.4 pg
  MCHC: 34.5%
  MCV: 61.9 fL
  Mono: 2.8%
  Neu: 18%
  PT: 12.3 s
  Plat: 115.5 x10_4/uL
  RBC: 630.4 x10_4/ul
  Ret: 5.8%
  WBC: 112.8 x10_2/uL
  KIDNEY_L: 1 g
  KIDNEY_R: 1 g
  KIDNEY_TOTAL: 2 g
  LIVER: 11 g
  A/G: 0.8
  ALP: 1737.2 IU/L
  ALT: 51 IU/L
  AST: 72.6 IU/L
  BUN: 14.8 mg/dL
  CRE: 0.2 mg/dL
  Ca: 11 mg/dL
  Cl: 107 meq/L
  DBIL: 0.012 mg/dL
  GLC: 191.2 mg/dL
  IP: 7 mg/dL
  K: 3.9 meq/L
  LDH: 97 IU/L
  Na: 143.8 meq/L
  PL: 145.8 mg/dL
  RALB: 2.7 g/dL
  TBIL: 0.044 mg/dL
  TC: 75.4 mg/dL
  TG: 90.2 mg/dL
  TP: 5.9 g/dL
  gamma-GTP: 1 IU/L
[…], time 14 day
  TERMINAL_BW: 295 g
  APTT: 15.8 s
  Bas: 0%
  Eos: 0.8%
  Fbg: 320.2 mg/dL
  Hb: 13.8 g/dL
  Ht: 39.9%
  Lym: 77%
  MCH: 20.8 pg
  MCHC: 34.7%
  MCV: 60 fL
  Mono: 2.4%
  Neu: 19%
  PT: 12 s
  Plat: 113.5 x10_4/uL
  RBC: 665.6 x10_4/ul
  Ret: 4.4%
  WBC: 89.1 x10_2/uL
  KIDNEY_L: 1.2 g
  KIDNEY_R: 1.1 g
  KIDNEY_TOTAL: 2.3 g
  LIVER: 12.9 g
  A/G: 0.8
  ALP: 1619.6 IU/L
  ALT: 39.2 IU/L
  AST: 67.8 IU/L
  BUN: 15.8 mg/dL
  CRE: 0.2 mg/dL
  Ca: 10.8 mg/dL
  Cl: 106.6 meq/L
  DBIL: 0 mg/dL
  GLC: 191.6 mg/dL
  IP: 6.8 mg/dL
  K: 3.9 meq/L
  LDH: 64.2 IU/L
  Na: 143.2 meq/L
  PL: 153 mg/dL
  RALB: 2.7 g/dL
  TBIL: 0.032 mg/dL
  TC: 75.6 mg/dL
  TG: 95 mg/dL
  TP: 5.9 g/dL
  gamma-GTP: 1 IU/L
[…], time 28 day
  TERMINAL_BW: 384.4 g
  APTT: 17.6 s
  Bas: 0%
  Eos: 1.6%
  Fbg: 301 mg/dL
  Hb: 14.9 g/dL
  Ht: 42.4%
  Lym: 79.4%
  MCH: 19.4 pg
  MCHC: 35.1%
  MCV: 55.4 fL
  Mono: 2.6%
  Neu: 15.4%
  PT: 12.5 s
  Plat: 103.9 x10_4/uL
  RBC: 765 x10_4/ul
  Ret: 2.4%
  WBC: 110.4 x10_2/uL
  KIDNEY_L: 1.3 g
  KIDNEY_R: 1.3 g
  KIDNEY_TOTAL: 2.6 g
  LIVER: 16.6 g
  A/G: 0.8
  ALP: 1341.6 IU/L
  ALT: 45.8 IU/L
  AST: 64 IU/L
  BUN: 16 mg/dL
  CRE: 0.2 mg/dL
  Ca: 10.7 mg/dL
  Cl: 104 meq/L
  DBIL: 0.018 mg/dL
  GLC: 186.6 mg/dL
  IP: 6 mg/dL
  K: 3.8 meq/L
  LDH: 71.4 IU/L
  Na: 142.2 meq/L
  PL: 157.8 mg/dL
  RALB: 2.9 g/dL
  TBIL: 0.036 mg/dL
  TC: 80.2 mg/dL
  TG: 158.4 mg/dL
  TP: 6.5 g/dL
  gamma-GTP: 1 IU/L
